Columns and labels:
[1] = target: human sodium channels Nav 1.8 (Homo sapiens (Human), UniProt Q9Y5Y9); assay: Automated whole-cell voltage-clamp (ScreenPatch 384P), Nav 1.8 sodium current, Protocol 2; type: cell-based; details: Protocol 2 (holding −100 mV, inactivation step −40 mV 8 s, 0.05 Hz); CHO cells expressing human Nav 1.8; read-out: Nav1.8 IC50
Experimental: (§1) Biological assays were performed on Chinese hamster ovary (CHO) cells expressing the human sodium channels Nav 1.8 and Nav 1.7 stably.
(§2) The experimental voltage-clamp protocol using the whole cell configuration was established on the automated ScreenPatch® 384P platform (SP384PE, Nanion Technologies, Livingston, NJ) and recording of the results was performed with a Nanion 384-well Patch Clamp chip (NPC) (Nanion Technologies, Livingston, NJ).
(§3) Compounds of Formula (I), were diluted in eight concentrations in the extracellular solution composed of physiological saline, buffered with HEPES (mM): NaCl, 137; KCl, 4; CaCl2, 3.8; MgCl2, 1; HEPES, 10; Glucose, 10; pH 7.4. The […], 50; CsF, 90; MgCl2, 5; EGTA, 5; HEPES, 10; pH 7.2. The duration of exposure of each compound with the cells expressing Nav 1.7 or Nav 1.8 was at least five minutes and the assays were performed at room temperature.
(§4) The measurements of the sodium currents of Nav 1.8 and Nav 1.7 were obtained using the voltage protocols described below: • Protocol 1: A holding voltage of −90 mV was established followed by a voltage phase of 200 ms to −120 mV, followed by a voltage step of 10 mV for 1 second for Nav 1.8 or 0 mV for Nav 1.7, followed by a step of −100 mV for 20 ms, followed by a step of 20 ms for 10 mV for Nav 1.8 or 0 mV for Nav 1.7 (TP1A) before returning to the holding voltage of −90 mV. • Protocol 2: A holding voltage of −100 mV was established followed by an inactivation voltage step at −40 mV for 8 seconds, followed by a −100 mV step for […], followed by a 20 ms step for 10 mV for Nav 1.8 or 0 mV for Nav 1.7 (TP1A) before returning to the holding voltage of −100 mV.
(§5) Protocols were repeated at a frequency of 0.1 Hz (Protocol 1) or 0.05 Hz (Protocol 2) and current amplitude was quantified over the TP1A phase log. The variation in the peak amplitude of the current was evaluated according to the Formula described below, after exposure of the cells expressing the channels, at each concentration of the different compounds:
(§6) [formula] • where |TP1A, basal, and |TP1A, molecule represent the entry peaks of sodium currents into TP1A prior to exposure to the compound and in the presence of the compound, respectively.
(§7) The decrease in peak current amplitude, after exposure of the cells to the compounds, was used to calculate the percent relative blocking of the channels relative to the positive control according to the Formula below:
(§8) [formula] • where % V and % CP represent the averages of the values of current inhibition with a vehicle (DMSO) and positive controls, respectively. The sodium currents of the positive control were considered as 100%.
(§9) [formula] • where [Test] represents the concentration of the evaluated molecule, IC50 is the concentration of the compound that generates half of the maximum inhibition, N is the Hill's coefficient and % Block′ is the percentage of the sodium channel current (Nav 1.8 and Nav 1.7) inhibited at each concentration of the evaluated molecule. Data were obtained by non-linear least squares regression with XLfit for Excel (Microsoft, Redmond, WA).
(§10) Compounds were tested in at least one assay to obtain the IC50 value.

[2] = target: human sodium channels Nav 1.7 (Homo sapiens (Human), UniProt Q15858); assay: Automated whole-cell voltage-clamp (ScreenPatch 384P), Nav 1.7 sodium current, Protocol 2; type: cell-based; details: Protocol 2 (holding −100 mV, inactivation step −40 mV 8 s, 0.05 Hz); CHO cells expressing human Nav 1.7; read-out: Nav1.7 IC50
Experimental: as §1, §2, §3, §4, §5, §6, §7, §8, §9, §10

human sodium channels Nav 1.7, sequence (Q15858 whole entry): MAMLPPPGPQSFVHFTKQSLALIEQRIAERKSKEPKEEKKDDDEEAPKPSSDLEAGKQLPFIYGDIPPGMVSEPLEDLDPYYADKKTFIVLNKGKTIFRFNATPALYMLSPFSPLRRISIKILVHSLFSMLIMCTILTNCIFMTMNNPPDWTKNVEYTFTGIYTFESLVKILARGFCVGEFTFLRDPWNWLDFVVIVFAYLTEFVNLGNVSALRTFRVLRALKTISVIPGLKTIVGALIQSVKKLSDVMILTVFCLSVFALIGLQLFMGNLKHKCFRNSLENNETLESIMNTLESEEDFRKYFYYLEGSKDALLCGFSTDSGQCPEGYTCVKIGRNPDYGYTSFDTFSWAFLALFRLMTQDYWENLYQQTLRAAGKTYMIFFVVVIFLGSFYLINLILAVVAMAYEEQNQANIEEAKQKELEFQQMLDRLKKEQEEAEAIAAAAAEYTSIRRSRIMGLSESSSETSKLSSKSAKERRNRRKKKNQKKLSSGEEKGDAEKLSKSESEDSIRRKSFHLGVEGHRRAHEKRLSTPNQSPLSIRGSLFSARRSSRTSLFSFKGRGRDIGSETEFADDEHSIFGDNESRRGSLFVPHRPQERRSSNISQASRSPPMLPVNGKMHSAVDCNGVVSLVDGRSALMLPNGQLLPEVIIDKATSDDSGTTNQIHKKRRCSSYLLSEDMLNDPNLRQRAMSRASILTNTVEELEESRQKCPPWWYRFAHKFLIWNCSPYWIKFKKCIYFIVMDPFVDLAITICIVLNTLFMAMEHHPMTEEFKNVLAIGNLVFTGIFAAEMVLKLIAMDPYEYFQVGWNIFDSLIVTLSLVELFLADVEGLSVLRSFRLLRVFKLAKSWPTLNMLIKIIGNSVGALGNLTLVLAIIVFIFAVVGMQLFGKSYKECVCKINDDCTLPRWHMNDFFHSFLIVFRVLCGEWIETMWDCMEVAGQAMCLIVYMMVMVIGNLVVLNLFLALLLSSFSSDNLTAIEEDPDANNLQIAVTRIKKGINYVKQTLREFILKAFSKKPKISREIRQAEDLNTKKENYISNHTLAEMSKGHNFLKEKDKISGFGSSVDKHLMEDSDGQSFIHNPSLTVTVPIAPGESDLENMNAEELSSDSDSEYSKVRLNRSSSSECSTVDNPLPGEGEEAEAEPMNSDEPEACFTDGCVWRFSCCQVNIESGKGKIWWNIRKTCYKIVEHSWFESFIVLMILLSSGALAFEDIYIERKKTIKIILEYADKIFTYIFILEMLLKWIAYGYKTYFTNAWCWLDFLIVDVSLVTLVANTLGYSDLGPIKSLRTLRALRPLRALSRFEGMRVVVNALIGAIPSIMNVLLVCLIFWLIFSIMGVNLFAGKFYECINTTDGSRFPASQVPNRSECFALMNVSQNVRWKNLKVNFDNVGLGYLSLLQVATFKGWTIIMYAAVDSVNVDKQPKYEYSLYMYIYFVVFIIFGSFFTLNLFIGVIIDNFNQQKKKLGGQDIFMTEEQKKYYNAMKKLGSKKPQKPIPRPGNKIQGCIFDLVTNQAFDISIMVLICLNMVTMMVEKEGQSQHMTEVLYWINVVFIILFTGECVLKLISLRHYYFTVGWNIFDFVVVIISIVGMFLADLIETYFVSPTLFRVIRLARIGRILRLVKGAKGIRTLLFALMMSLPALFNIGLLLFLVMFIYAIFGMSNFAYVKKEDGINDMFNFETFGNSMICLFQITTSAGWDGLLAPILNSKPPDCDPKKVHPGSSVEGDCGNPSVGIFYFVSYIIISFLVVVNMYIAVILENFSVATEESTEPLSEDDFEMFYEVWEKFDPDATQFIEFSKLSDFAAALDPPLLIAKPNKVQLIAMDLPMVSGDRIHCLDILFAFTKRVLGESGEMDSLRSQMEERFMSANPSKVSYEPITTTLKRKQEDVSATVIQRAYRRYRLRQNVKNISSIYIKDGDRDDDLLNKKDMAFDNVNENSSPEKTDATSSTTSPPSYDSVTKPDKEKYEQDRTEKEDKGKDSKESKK
human sodium channels Nav 1.8, sequence (Q9Y5Y9 whole entry): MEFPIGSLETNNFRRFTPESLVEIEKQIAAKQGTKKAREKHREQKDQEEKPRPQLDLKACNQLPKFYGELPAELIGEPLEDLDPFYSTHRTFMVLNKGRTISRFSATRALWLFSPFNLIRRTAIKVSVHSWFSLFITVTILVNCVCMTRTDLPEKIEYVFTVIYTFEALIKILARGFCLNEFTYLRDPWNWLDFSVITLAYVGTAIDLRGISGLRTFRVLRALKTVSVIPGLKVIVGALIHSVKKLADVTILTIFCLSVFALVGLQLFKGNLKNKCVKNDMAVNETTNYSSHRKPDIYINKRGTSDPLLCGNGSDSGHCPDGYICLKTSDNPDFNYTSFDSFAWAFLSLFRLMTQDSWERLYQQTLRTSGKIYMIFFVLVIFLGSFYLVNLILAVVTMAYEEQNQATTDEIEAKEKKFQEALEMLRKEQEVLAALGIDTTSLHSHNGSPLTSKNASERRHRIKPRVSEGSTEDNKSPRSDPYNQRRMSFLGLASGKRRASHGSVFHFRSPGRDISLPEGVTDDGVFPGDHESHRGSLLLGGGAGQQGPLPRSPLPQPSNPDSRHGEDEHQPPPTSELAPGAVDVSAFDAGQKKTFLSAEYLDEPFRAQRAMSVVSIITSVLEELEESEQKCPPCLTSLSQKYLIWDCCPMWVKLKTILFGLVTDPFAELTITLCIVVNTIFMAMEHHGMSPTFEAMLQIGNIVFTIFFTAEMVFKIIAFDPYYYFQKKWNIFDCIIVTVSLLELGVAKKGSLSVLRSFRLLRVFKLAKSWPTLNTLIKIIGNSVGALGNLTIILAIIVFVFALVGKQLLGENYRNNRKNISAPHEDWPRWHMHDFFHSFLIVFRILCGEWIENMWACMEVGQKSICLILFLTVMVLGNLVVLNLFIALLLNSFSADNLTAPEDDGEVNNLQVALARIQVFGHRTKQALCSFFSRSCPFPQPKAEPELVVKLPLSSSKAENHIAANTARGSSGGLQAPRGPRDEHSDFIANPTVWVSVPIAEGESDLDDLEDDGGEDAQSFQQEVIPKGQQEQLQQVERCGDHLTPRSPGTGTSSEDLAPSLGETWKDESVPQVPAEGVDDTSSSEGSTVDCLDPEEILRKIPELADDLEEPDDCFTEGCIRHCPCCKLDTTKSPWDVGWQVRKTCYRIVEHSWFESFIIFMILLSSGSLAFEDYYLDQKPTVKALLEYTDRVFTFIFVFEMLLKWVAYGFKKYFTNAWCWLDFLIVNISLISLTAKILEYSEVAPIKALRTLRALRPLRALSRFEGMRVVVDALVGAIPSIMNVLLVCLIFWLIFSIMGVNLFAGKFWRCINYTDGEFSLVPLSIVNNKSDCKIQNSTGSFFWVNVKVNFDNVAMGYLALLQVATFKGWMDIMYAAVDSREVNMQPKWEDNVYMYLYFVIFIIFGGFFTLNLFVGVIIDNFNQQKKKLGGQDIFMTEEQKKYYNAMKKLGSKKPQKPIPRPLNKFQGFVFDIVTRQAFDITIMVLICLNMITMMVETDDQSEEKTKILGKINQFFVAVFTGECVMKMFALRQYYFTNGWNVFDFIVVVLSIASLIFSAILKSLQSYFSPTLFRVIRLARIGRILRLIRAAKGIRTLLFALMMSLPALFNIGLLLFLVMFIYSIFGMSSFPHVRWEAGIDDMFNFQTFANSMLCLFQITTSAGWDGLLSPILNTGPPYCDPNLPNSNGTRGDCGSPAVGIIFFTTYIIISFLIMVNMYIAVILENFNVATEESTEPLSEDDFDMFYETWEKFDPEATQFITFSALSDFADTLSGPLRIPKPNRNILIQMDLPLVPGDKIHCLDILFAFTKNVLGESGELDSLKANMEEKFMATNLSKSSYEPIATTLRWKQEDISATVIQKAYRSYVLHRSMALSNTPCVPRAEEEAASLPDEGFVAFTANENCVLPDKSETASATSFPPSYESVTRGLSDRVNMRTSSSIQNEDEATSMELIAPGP

| Structure (SMILES) | IC50 [1] [nM] | IC50 [2] [nM] |
| --- | --- | --- |
| CCCCOc1ccc(-c2cc(C(=O)N/N=C/c3cc(OC)cc(OC)c3)ccn2)cc1 [Compound 38, (E)-2-(4-butoxyphenyl)-N′-(3,5-dimethoxybenzylidene) isonicotinohydrazide] | > 1000 | > 10000 |
| COc1cc(/C=N/NC(=O)c2ccnc(-c3ccc(OC4CCCC4)cc3)c2)cc(OC)c1 [Compound 39, (E)-2-(4-(cyclopentyloxy)phenyl)-N′-(3,5-dimethoxybenzylidene) isonicotinohydrazide] | > 1000 | > 10000 |
| COc1cc(/C=N/NC(=O)c2cccc(-c3ccc(OC(F)(F)F)cc3)n2)cc(OC)c1 [Compound 40, (E)-N′-(3,5-dimethoxybenzylidene)-6-(4-(trifluoromethoxy)phenyl) picolinohydrazide] | 140 | 123 |
| CCCCOc1ccc(-c2cccc(C(=O)N/N=C/c3cc(OC)cc(OC)c3)n2)cc1 [Compound 41, (E)-6-(4-butoxyphenyl)-N′-(3,5-dimethoxybenzylidene) picolinohydrazide] | > 1000 | 1200 |
| COc1cc(/C=N/NC(=O)c2ccnc(-c3ccc(OC(C)C)cc3)n2)cc(OC)c1 [Compound 54, (E)-N′-(3,5-dimethoxybenzylidene)-2-(4-isopropoxyphenyl)pyrimidine-4-carbohydrazide] | 313 | 137 |
| COc1cc(/C=N/NC(=O)c2nccc(-c3ccc(Cl)cc3)n2)cc(OC)c1 [Compound 60, (E)-4-(4-chlorophenyl)-N′-(3,5-dimethoxybenzylidene)pyrimidine-2-carbohydrazide] | 5040 | 5150 |
| CCOc1ccc(-c2ccnc(C(=O)N/N=C/c3cc(OC)cc(OC)c3)n2)cc1 [Compound 61, (E)-N′-(3,5-dimethoxybenzylidene)-4-(4-ethoxyphenyl)pyrimidine-2-carbohydrazide] | 183 | 651 |
| COc1cc(/C=N/NC(=O)c2nccc(-c3ccc(OC(C)C)cc3)n2)cc(OC)c1 [Compound 62, (E)-N′-(3,5-dimethoxybenzylidene)-4-(4-isopropoxyphenyl)pyrimidine-2-carbohydrazide] | 462 | 302 |
| COc1cc(/C=N/NC(=O)c2nccc(-c3ccc(OC4CCCC4)cc3)n2)cc(OC)c1 [Compound 63, (E)-4-(4-(cyclopentyloxy)phenyl)-N′-(3,5-dimethoxybenzylidene)pyrimidine-2-carbohydrazide] | > 1000 | 306 |
| COc1cc(/C=N/NC(=O)c2nccc(-c3ccc(OC(F)(F)F)cc3)n2)cc(OC)c1 [Compound 64, (E)-N′-(3,5-dimethoxybenzylidene)-4-(4-(trifluoromethoxy)phenyl) pyrimidine-2-carbohydrazide] | 384 | 173 |
| COc1ccc(-c2ccnc(C(=O)N/N=C/c3cc(OC)cc(OC)c3)n2)cc1 [Compound 65, (E)-N′-(3,5-dimethoxybenzylidene)-4-(4-methoxyphenyl)pyrimidine-2-carbohydrazide] | > 1000 | 6440 |
| CCCOc1ccc(-c2ccnc(C(=O)N/N=C/c3cc(OC)cc(OC)c3)n2)cc1 [Compound 66, (E)-N′-(3,5-dimethoxybenzylidene)-4-(4-propoxyphenyl)pyrimidine-2-carbohydrazide] | > 1000 | 569 |
| CCOc1ccc(-c2cc(F)cc(C(=O)N/N=C/c3cc(OC)cc(OC)c3)n2)cc1 [Compound 68, (E)-N′-(3,5-dimethoxybenzylidene)-6-(4-ethoxyphenyl)-4-fluoropicolinohydrazide] | 636 | > 10000 |
| CCOc1ccc(-c2cc(C(F)(F)F)cc(C(=O)N/N=C/c3cc(OC)cc(OC)c3)n2)cc1 [Compound 69] | > 1000 | > 10000 |
| COc1ccc(-c2ccc(C(=O)N/N=C/c3cc(OC)cc(OC)c3)o2)cc1 [Compound 71, (E)-N′-(3,5-dimethoxybenzylidene)-5-(4-methoxyphenyl) furan-2-carbohydrazide] | > 1000 | > 10000 |
| COc1ccc(-c2ccc(C(=O)N/N=C/c3cc(OC)cc(OC)c3)s2)cc1 [Compound 72, (E)-N′-(3,5-dimethoxybenzylidene)-5-(4-methoxyphenyl)thiophene-2-carbohydrazide] | > 1000 | > 10000 |
| COc1ccc(-c2ncc(C(=O)N/N=C/c3cc(OC)cc(OC)c3)o2)cc1 [Compound 73, (E)-N′-(3,5-dimethoxybenzylidene)-2-(4-methoxyphenyl) oxazole-5-carbohydrazide] | > 1000 | > 10000 |
| COc1ccc(-c2nc(C(=O)N/N=C/c3cc(OC)cc(OC)c3)co2)cc1 [Compound 74, (E)-N′-(3,5-dimethoxybenzylidene)-2-(4-methoxyphenol) oxazole-4-carbohydrazide] | > 1000 | > 10000 |
| COc1ccc(-c2noc(C(=O)N/N=C/c3cc(OC)cc(OC)c3)n2)cc1 [Compound 75, (E)-N′-(3,5-dimethoxybenzylidene)-3-(4-methoxyphenol)-1,2,4-oxadiazole-5-carbohydrazide] | > 1000 | > 10000 |
| COc1ccc(-c2nc(C(=O)N/N=C/c3cc(OC)cc(OC)c3)cs2)cc1 [Compound 76, (E)-N′-(3,5-dimethoxybenzylidene)-2-(4-methoxyphenyl) thiazole-4-carbohydrazide] | > 1000 | > 10000 |

Source: US20240335420A1, “N-ACYLHYDRAZONE COMPOUNDS CAPABLE OF INHIBITING NAV 1.7 AND/OR NAV 1.8, PROCESSES FOR THE PREPARATION THEREOF, COMPOSITIONS, USES, METHODS FOR TREATMENT USING SAME AND KITS” (EUROFARMA LABORATÓRIOS S.A., priority 2021, published 2024)
